# Assay results: patent US12281057B2 (VERTEX PHARMACEUTICALS INCORPORATED, priority 2017, dated 2025)
# Where two headings read alike, the source gives them in different places.
# Biological target: truncated form of human NaV 1.8 with full channel activity (Homo sapiens, UniProt Q9Y5Y9)
# Assay: E-VIPR Assay Method A for detecting and measuring Nav inhibition (HEK cells, membrane potential FRET dyes, electrical stimulation)
# Assay type: cell-based
# Conditions: HEK cells expressing human NaV 1.8, HS (human serum) in compound loading buffer, 11 point dose response, top dose 3 μM
# How it was run: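 Read-out: FRET membrane-potential dye ratio (460/580 nm) before and during E-VIPR field stimulation at 10 Hz for 10 s, expressed as % activity between DMSO and positive controls. Cells: HEK with truncated human NaV1.8; compound preincubated 30 min at room temp, final DMSO 0.625%.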
# [1] = Table 20A, read-out: Nav 1.8 MedChem Optical Assay EVIPR Assay Method A HS IC50
# [2] = Table 20, read-out: Nav 1.8 MedChem Optical Assay EVIPR Assay Method A HS IC50
# Sequence of truncated form of human NaV 1.8 with full channel activity (Q9Y5Y9 126-1722 limits assumed): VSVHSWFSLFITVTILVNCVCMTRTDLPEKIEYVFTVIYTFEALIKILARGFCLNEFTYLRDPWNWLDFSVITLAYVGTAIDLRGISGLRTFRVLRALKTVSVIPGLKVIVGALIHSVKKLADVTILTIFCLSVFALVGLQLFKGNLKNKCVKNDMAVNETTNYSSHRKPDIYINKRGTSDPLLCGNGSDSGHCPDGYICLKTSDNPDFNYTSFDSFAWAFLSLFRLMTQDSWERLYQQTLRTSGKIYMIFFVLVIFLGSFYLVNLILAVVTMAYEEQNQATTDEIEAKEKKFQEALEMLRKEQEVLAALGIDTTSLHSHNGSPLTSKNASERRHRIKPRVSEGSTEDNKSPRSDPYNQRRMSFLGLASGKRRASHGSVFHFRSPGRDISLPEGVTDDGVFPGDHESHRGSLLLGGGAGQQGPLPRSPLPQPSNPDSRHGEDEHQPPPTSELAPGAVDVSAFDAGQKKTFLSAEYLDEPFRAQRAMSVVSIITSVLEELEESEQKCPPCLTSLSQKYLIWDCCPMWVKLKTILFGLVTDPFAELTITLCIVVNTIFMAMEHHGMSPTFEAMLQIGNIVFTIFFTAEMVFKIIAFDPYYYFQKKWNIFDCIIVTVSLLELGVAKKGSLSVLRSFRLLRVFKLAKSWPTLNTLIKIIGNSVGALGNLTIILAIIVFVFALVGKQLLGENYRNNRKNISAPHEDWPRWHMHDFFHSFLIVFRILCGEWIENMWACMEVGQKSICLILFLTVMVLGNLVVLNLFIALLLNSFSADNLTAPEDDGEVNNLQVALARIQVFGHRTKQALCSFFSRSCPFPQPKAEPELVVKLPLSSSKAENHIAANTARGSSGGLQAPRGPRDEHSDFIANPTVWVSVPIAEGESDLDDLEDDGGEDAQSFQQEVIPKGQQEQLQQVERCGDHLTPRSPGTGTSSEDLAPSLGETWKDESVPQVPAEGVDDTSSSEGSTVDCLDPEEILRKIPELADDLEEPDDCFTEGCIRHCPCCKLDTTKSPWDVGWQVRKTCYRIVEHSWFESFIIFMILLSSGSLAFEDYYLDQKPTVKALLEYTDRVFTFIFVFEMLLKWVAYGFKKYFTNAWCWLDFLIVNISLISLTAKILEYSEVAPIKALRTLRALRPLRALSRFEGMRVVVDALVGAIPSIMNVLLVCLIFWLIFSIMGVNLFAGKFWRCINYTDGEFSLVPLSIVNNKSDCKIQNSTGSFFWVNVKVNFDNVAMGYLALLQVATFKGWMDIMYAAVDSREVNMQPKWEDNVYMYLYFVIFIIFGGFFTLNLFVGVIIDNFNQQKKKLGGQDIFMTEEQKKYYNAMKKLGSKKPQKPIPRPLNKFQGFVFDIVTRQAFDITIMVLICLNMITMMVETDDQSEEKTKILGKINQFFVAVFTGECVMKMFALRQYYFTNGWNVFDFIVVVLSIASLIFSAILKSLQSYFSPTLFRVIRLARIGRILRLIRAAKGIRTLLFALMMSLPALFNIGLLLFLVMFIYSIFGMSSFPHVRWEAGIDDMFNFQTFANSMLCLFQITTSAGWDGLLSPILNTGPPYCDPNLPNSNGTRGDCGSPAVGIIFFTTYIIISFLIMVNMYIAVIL
Compound,IC50 [1] [nM],IC50 [2] [nM]
"COc1cc(OC(F)(F)F)ccc1Oc1cc(Cl)cc(OC)c1C(=O)Nc1cc(C(N)=O)ncc1C [Compound 133, 4-[[4-Chloro-2-methoxy-6-[2-methoxy-4-(trifluoromethoxy)phenoxy]benzoyl]amino]-5-methyl-pyridine-2-carboxamide]",430,
"[2H]C([2H])([2H])Oc1cc(OC(F)(F)F)ccc1Oc1ccc(C(F)(F)F)c(F)c1C(=O)Nc1ccc(C(N)=O)nc1 [Compound 24, 5-[[2-fluoro-6-[2-(trideuteriomethoxy)-4-(trifluoromethoxy)phenoxy]-3-(trifluoromethyl)benzoyl]amino]pyridine-2-carboxamide]",,18
"COc1cc(OC(F)(F)F)ccc1Oc1ccc(C(F)(F)F)c(F)c1C(=O)Nc1ccc(C(N)=O)c(F)c1 [Compound 16, N-(4-carbamoyl-3-fluoro-phenyl)-2-fluoro-6-[2-methoxy-4-(trifluoromethoxy)phenoxy]-3-(trifluoromethyl)benzamide]",,7
"COc1cc(OC(F)(F)F)ccc1Oc1ccc(C(F)F)c(F)c1C(=O)Nc1ccc(F)c(C(N)=O)c1 [Compound 7, N-(3-carbamoyl-4-fluoro-phenyl)-3-(difluoromethyl)-2-fluoro-6-[2-methoxy-4-(trifluoromethoxy)phenoxy]benzamide]",,3
"[2H]C([2H])([2H])Oc1c(Oc2ccc(OC(F)(F)F)c(NC)c2C(=O)Nc2ccnc(C(=O)NC)c2)ccc(OC(F)(F)F)c1F [Compound 230, 4-[[6-[3-Fluoro-2-(trideuteriomethoxy)-4-(trifluoromethoxy)phenoxy]-2-(methylamino)-3-(trifluoromethoxy)benzoyl]amino]-N-methyl-pyridine-2-carboxamide]",250,
"Cn1nccc1-c1cc(F)ccc1Oc1ccc(C(F)(F)F)c(F)c1C(=O)Nc1ccc(F)c(C(N)=O)c1 [Compound 135, N-(3-Carbamoyl-4-fluoro-phenyl)-2-fluoro-6-[4-fluoro-2-(2-methylpyrazol-3-yl)phenoxy]-3-(trifluoromethyl)benzamide]",140,
"NC(=O)c1ccc(NC(=O)c2c(Oc3ccc(OC(F)(F)F)cc3)ccc(C(F)(F)F)c2F)cn1 [Compound 60, 5-[[2-fluoro-6-[4-(trifluoromethoxy)phenoxy]-3-(trifluoromethyl)benzoyl]amino]pyridine-2-carboxamide]",185,
"NC(=O)c1cc(NC(=O)c2c(Oc3ccc(F)cc3)ccc(C(F)(F)F)c2F)ccc1F [Compound 25, N-(3-carbamoyl-4-fluoro-phenyl)-2-fluoro-6-(4-fluorophenoxy)-3-(trifluoromethyl)benzamide]",,18
"[2H]C([2H])([2H])Oc1cc(OC(F)(F)F)ccc1Oc1ccc(OC(F)F)c(F)c1C(=O)Nc1ccc(C(N)=O)nc1 [Compound 198, 5-[[3-(Difluoromethoxy)-2-fluoro-6-[2-(trideuteriomethoxy)-4-(trifluoromethoxy)phenoxy]benzoyl]amino]pyridine-2-carboxamide]",150,
"[2H]C([2H])([2H])Oc1cc(OC(F)(F)F)ccc1Oc1ccc(OC(F)(F)F)c(F)c1C(=O)Nc1ccc(F)c(C(N)=O)c1 [Compound 3, N-(3-carbamoyl-4-fluoro-phenyl)-2-fluoro-6-[2-(trideuteriomethoxy)-4-(trifluoromethoxy)phenoxy]-3-(trifluoromethoxy)benzamide]",,1
"NC(=O)c1cc(NC(=O)c2c(Oc3ccc(OC(F)(F)F)cc3O)ccc(C(F)(F)F)c2F)ccn1 [Compound 214, 4-[[2-Fluoro-6-[2-hydroxy-4-(trifluoromethoxy)phenoxy]-3-(trifluoromethyl)benzoyl]amino]pyridine-2-carboxamide]",660,
"NC(=O)c1cc(NC(=O)c2cc(OC(F)(F)F)ccc2Oc2ccc(OC(F)(F)F)cc2)ccn1 [Compound 156, 4-[[5-(Trifluoromethoxy)-2-[4-(trifluoromethoxy)phenoxy]benzoyl]amino]pyridine-2-carboxamide]",560,
"COc1cc(F)ccc1Oc1cc(OC(F)(F)F)ccc1C(=O)Nc1ccnc(C(N)=O)c1 [Compound 148, 4-[[2-(4-Fluoro-2-methoxy-phenoxy)-4-(trifluoromethoxy)benzoyl]amino]pyridine-2-carboxamide]",850,

# More lines, now with the values ahead:
IC50 [1] [nM],IC50 [2] [nM],Compound
27,,"COc1cc(OC(F)(F)F)ccc1Oc1cc(Cl)cc(F)c1C(=O)Nc1cc(C(N)=O)ncc1C [Compound 130, 4-[[4-Chloro-2-fluoro-6-[2-methoxy-4-(trifluoromethoxy)phenoxy]benzoyl]amino]-5-methyl-pyridine-2-carboxamide]"
3,,"CNC(=O)c1cc(NC(=O)c2c(Oc3ccc(OC(F)(F)F)cc3OC)ccc(C(F)(F)F)c2F)ccc1F [Compound 99, 2-fluoro-N-[4-fluoro-3-(methylcarbamoyl)phenyl]-6-[2-methoxy-4-(trifluoromethoxy)phenoxy]-3-(trifluoromethyl)benzamide]"
9,,NC(=O)c1cc(NC(=O)c2c(Oc3ccc(OC(F)(F)F)cc3Cl)ccc(C(F)(F)F)c2F)ccn1 [Compound 51]
46,,"COc1cc(OC(F)(F)F)ccc1Oc1cnc(C(F)(F)F)c(OC)c1C(=O)Nc1ccc(C(N)=O)nc1 [Compound 203, N-(6-Carbamoyl-3-pyridyl)-3-methoxy-5-[2-methoxy-4-(trifluoromethoxy)phenoxy]-2-(trifluoromethyl)pyridine-4-carboxamide]"
36,,"Cc1cnc(C(N)=O)cc1NC(=O)c1c(Oc2ccc(OC(F)(F)F)c(F)c2)ccc(Cl)c1F [Compound 245, 4-[[3-chloro-2-fluoro-6-[3-fluoro-4-(trifluoromethoxy)phenoxy]benzoyl]amino]-5-methyl-pyridine-2-carboxamide]"
40,,"COc1c(C(F)(F)F)ccc(Oc2ccc(OC(F)(F)F)cc2)c1C(=O)Nc1ccnc(C(N)=O)c1 [Compound 91, 4-[[2-Methoxy-6-[4-(trifluoromethoxy)phenoxy]-3-(trifluoromethyl)benzoyl]amino]pyridine-2-carboxamide]"
22,,"COc1cc(OC(F)(F)F)ccc1Oc1cc(C(F)(F)F)cc(F)c1C(=O)Nc1cc(C(N)=O)ncc1C [Compound 153, 4-[[2-Fluoro-6-[2-methoxy-4-(trifluoromethoxy)phenoxy]-4-(trifluoromethyl)benzoyl]amino]-5-methyl-pyridine-2-carboxamide]"
85,,"COc1cc(OC(F)(F)F)ccc1Oc1cc(C(F)(F)F)cc(F)c1C(=O)Nc1cc(C(N)=O)c(F)cc1C [Compound 139, 2-Fluoro-5-[[2-fluoro-6-[2-methoxy-4-(trifluoromethoxy)phenoxy]-4-(trifluoromethyl)benzoyl]amino]-4-methyl-benzamide]"
13,,"NC(=O)c1cc(NC(=O)c2c(Oc3ccc(F)cc3OC(F)F)ccc(C(F)(F)F)c2F)ccn1 [Compound 208, 4-[[6-[2-(Difluoromethoxy)-4-fluoro-phenoxy]-2-fluoro-3-(trifluoromethyl)benzoyl]amino]pyridine-2-carboxamide]"
20,,"COc1cc(OC(F)(F)F)ccc1Oc1ccc(C(F)(F)F)c(F)c1C(=O)Nc1ccnc(C(=O)N(C)C)c1 [Compound 97, 4-[[2-fluoro-6-[2-methoxy-4-(trifluoromethoxy)phenoxy]-3-(trifluoromethyl)benzoyl]amino]-N,N-dimethyl-pyridine-2-carboxamide]"
44,,"COc1ccc(Oc2ccc(C(F)(F)F)c(F)c2C(=O)Nc2ccnc(C(N)=O)c2)c(OC(F)(F)F)c1 [Compound 196, 4-[[2-Fluoro-6-[4-methoxy-2-(trifluoromethoxy)phenoxy]-3-(trifluoromethyl)benzoyl]amino]pyridine-2-carboxamide]"
5,,"COc1cc(OC(F)(F)F)ccc1Oc1cc(C(F)(F)F)cc(F)c1C(=O)Nc1ccc(F)c(C(N)=O)c1 [Compound 140, N-(3-Carbamoyl-4-fluoro-phenyl)-2-fluoro-6-[2-methoxy-4-(trifluoromethoxy)phenoxy]-4-(trifluoromethyl)benzamide]"
84,,"COc1cc(OC(F)(F)F)ccc1Oc1cc([C@H]2C[C@@H]2C)ncc1C(=O)Nc1ccc(F)c(C(N)=O)c1 (single isomer, unassigned) [Compound 113]"
56,,"NC(=O)c1cc(NC(=O)c2c(Oc3ccc(OC(F)(F)F)nc3)ccc(C(F)(F)F)c2F)ccc1F [Compound 69, N-(3-carbamoyl-4-fluoro-phenyl)-2-fluoro-6-[[6-(trifluoromethoxy)-3-pyridyl]oxy]-3-(trifluoromethyl)benzamide]"
17,,"COc1cc(OC(F)(F)F)ccc1Oc1cc([C@@H]2C[C@H]2C)ncc1C(=O)Nc1ccc(F)c(C(N)=O)c1 (single isomer, unassigned) [Compound 114]"
130,,"NC(=O)c1cccc(NC(=O)c2c(Oc3ccc(F)cc3)ccc(C(F)(F)F)c2F)c1 [Compound 49, N-(3-carbamoylphenyl)-2-fluoro-6-(4-fluorophenoxy)-3-(trifluoromethyl)benzamide]"
65,,"COc1cc(OC(F)(F)F)ccc1Oc1cc(C2C[C@@H]2C)ncc1C(=O)Nc1ccnc(C(N)=O)c1 (mixture of isomers) [Compound 109, Racemic trans-4-(4-(2-Methoxy-4-(trifluoromethoxy)phenoxy)-6-(2-methylcyclopropyl)nicotinamido)picolinamide]"
99,,"[2H]C([2H])([2H])Oc1cc(OC(F)(F)F)ccc1Oc1cc(Cl)cc(Cl)c1C(=O)Nc1ccc(C(N)=O)nc1 [Compound 183, 5-[[2,4-Dichloro-6-[2-(trideuteriomethoxy)-4-(trifluoromethoxy)phenoxy]benzoyl]amino]pyridine-2-carboxamide]"
18,,"COc1cc(OC(F)(F)F)ccc1Oc1ccc(C(F)(F)F)c(OC)c1C(=O)Nc1cc(C(N)=O)ncc1F [Compound 128, 5-Fluoro-4-(2-methoxy-6-(2-methoxy-4-(trifluoromethoxy)phenoxy)-3-(trifluoromethyl)benzamido)picolinamide]"
